Where “and” joins values, the source holds several entries; their conditions need not be identical. Equal entries are not always repeated.
How the values were obtained:
[1] = test system: LNCaP; assay: FACS cell binding assay of sera from PSMA vaccinated mice; format: cell-based, human; conditions: Table 4
Procedure: Various prostate cancer cell lines were used for this assay. […] The cell binding assay was performed as follows: LNCaP and PC3 cells (or TRAMP-C2PSMA and TRAMP C2) were plated in separate wells at 2×10^5 cells/well (50 μL) in a 96 well plate. Sera from PSMA vaccinated mice, as described in […], were diluted 1:50 with FACS buffer (PBS pH 7.4, 1% FBS, 25 mM HEPES, and 1 mM EDTA). Fifty μL of diluted J591-A antibody (mouse anti-human PSMA antibody, clone J591-A from ATCC) were added to the diluted test sera or FACS buffer (unstained samples) to achieve the appropriate cell numbers per well in the staining plate. All was mixed by pipetting and then kept on ice for 20 min. The cells were washed twice with FACS buffer; each wash was by centrifugation at 1200 RPM at 5° C. for 5 minutes. Fifty μL of secondary staining solution were added containing a 1:200 dilution of PE-labeled goat anti-mouse Ig (Sigma, cat P9670-5) and 0.25 μl of Live/Dead Aqua stain (Invitrogen, cat. #L34957) to each of the cell containing wells and kept on ice for 20 min. Cells were washed twice as described earlier. Washed cell pellets were resuspended in 125 uL FACS buffer and then 75 uL 4% paraformaldehyde solution were added to each well to fix the cells. Samples were kept on ice and protected from light for at least 15 min. Samples were run on FACS Canto II. Ten thousand live cell events were recorded for each sample. […]

[2] = test system: rhesus PSMA; assay: IFNγ ELISPOT of PBMCs, PSMA vaccine with or without anti-CTLA-4 in Indian rhesus macaques, rhesus PSMA recall antigens; format: in vivo; conditions: Group 2, vaccine + CpG 3 mg intradermal + aCTLA4 10 mg/kg intravenous (IV), normalized to 1e6 PBMCs, one cell per animal
Text: Three groups of male Indian rhesus macaques, five to six (#1 to 5 or 6) per each test group, were immunized with a nucleic acid (SEQ ID NO: 10) that encodes a human PSMA modified antigen (SEQ ID NO: 9) delivered by adenovirus (1e11 V.P. injected intramuscularly) followed by 2 DNA immunizations (8 actuations/immunization, 4 actuations per each right and left side of the lower abdomen) by PMED with 6 and 9 week intervals respectively. Animals in Groups 2 and 3 additionally received bilateral intradermal injections of 3 mg of CpG (PF-03512676) subsequently after the PMED immunization in proximity to each inguinal draining lymph node. Group 2 also received intravenous injections of anti-CTLA-4 monoclonal antibody (CP-675, 206) at 10 mg/kg and group 3 received intradermal injections of anti-CTLA-4 monoclonal antibody (CP-675, 206) at 5 mg/kg in proximity to each left and right inguinal vaccine draining lymph node at the time of the second PMED immunization.
Peripheral blood samples were collected from each animal sixteen days after the last PMED immunization. Peripheral blood mononuclear cells (PBMCs) were isolated from the samples and were subjected to an IFNγ ELISPOT assay to measure the PSMA specific T cell responses. […] The number of IFNγ spot forming cells (SFC) were counted by CTL reader. […]

Row | Substance | Fold over background Average (+/−SD) ([1]; binding of serum anti-PSMA antibodies (1:50) to human prostate cancer cells LNCaP by FACS, background PC3) | # of positive ([1]; mice with serum binding to LNCaP by FACS / N) | PSMA specific IFNγ SFC, recall antigen R1 [2] | PSMA specific IFNγ SFC, recall antigen rPSMA protein [2]
1 | PSMA modified: membrane-bound polypeptide of amino acids 15-750 of human PSMA, SEQ ID NO: 9; tested as DNA construct | 6.01 (0.38) | 4/4 |  | 
2 | Tremelimumab: fully human IgG2 anti-CTLA-4 monoclonal antibody, CAS 745013-59-6, SEQ ID NOs:42 and 43 |  |  | 6.3 SFC and 0.0 SFC and 22.5 SFC and 26.3 SFC and 97.5 SFC | 0.0 SFC and 3.8 SFC and 1.3 SFC and 2.5 SFC and 20.0 SFC

Reference: patent US11110158B2, “Prostate-associated antigens and vaccine-based immunotherapy regimens” (Pfizer Inc., priority 2012, dated 2021)
